Experiment [1] has as its system proinflammatory (M1) and anti-inflammatory (M2) markers in macrophages. Put plainly: EAE model (MBP immunization), ex vivo realtime PCR analysis of M1 and M2 macrophage markers. The note with it: macrophages ex vivo (splenic, day 13 post MBP-immunization; CNS infiltrating cells), compound treated vs control. The format is in vivo, rats. The procedure: A further study was carried out to study the impact of Lp-PLA2 inhibitors on modulating M1/M2 imbalance. In this study, rats were induced to develop experimental autoimmune encephalomyelitis (EAE) by immunization with myelin basic protein (MBP) antigen and treated with a known Lp-PLA2 inhibitor: 549-Methoxy-4-oxo-6,7-dihydro-4H-pyrimido[6,1-a]isoquinolin-2-yl)oxy)-2-(3-(trifluoromethyl)phenoxy)benzonitrile (See PCT application no. PCT/CN2011/001597) For preventive treatment, compound administration started at day 0 whereas it started at 7 day in therapeutic treatment. Rats were subsequently monitored for symptoms of EAE. Rats were immunized with MBP to develop EAE and symptoms were monitored daily. Plasma Lp-PLA2 activity and LysoPC concentration were determined at different time points through the course of EAE.
Ex vivo analysis of proinflammatory (M1) and anti-inflammatory (M2) markers in control and compound treated EAE […]. Splenic macrophages were harvested at day 13 post MBP-immunization and assayed for expression of a variety of markers by realtime PCR. CNS infiltrating cells were harvested and macrophages were analyzed for expression of M1 and M2 markers by realtime PCR.

In experiment [2] the target is T1, Lp-PLA2 from plasma (pooled human plasma) (Homo sapiens, UniProt Q13093).
T1 construct: 8 μL pooled human plasma; from tissue; host or cells: pooled human plasma
T1 sequence (Q13093 22-441): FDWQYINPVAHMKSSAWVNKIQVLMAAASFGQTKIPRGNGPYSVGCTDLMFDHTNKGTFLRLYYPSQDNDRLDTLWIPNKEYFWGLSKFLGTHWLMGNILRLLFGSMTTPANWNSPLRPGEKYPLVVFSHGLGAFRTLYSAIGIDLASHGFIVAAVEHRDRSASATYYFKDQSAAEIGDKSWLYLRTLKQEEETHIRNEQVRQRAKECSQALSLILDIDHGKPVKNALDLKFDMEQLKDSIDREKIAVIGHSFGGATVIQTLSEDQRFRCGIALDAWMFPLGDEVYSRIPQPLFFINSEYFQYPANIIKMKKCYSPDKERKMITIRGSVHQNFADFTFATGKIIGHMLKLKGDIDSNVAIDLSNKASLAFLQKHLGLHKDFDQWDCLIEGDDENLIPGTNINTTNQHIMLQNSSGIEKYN
Kind of experiment: Lp-PLA2 human plasma assay (Thio-PAF assay). The format is biochemical. The note with it: text thresholds, read-out: pIC50 values in the thio-PAF assay (converted). The source says:
(3) Lipoprotein-Associated Phospholipase A2 (Lp-PLA2) Human Plasma Assay (Also Referred to as “Thio-PAF Assay”)
The human plasma assay utilizes a thioester analog of PAF (phosphatidylcholine), where hydrolysis yields to the formation of a phospholipid containing a free thiol group. The amount of thiol is quantitated continuously by reacting with CPM (7-diethylamino-3-(4′-maleimidylphenyl)-4-methylcoumarin), a maleimide which increases in fluoresence after Michael addition of thiols. This assay may detect the activity of Lp-PLA2 from plasma, as determined by specific inhibition by Lp-PLA2 inhibitors.
The thio-PAF assay was run as a quenched 15 μL assay. Compounds source plate was prepared by making 1:3 (by volume) serial dilution of the compounds into pure DMSO on 384-well microplate. 0.01 μL of compounds on compound source plate were transferred to 384 well Greiner 784076 (black) low-volume plates by ECHO liquid dispenser. 8 μL pooled human plasma, which was previously aliquoted and frozen, was added. Plates were centrifuged for 10 sec at 500 rpm. After 30 minutes preincubation, 2 μL of substrate (2.5 mM thio-PAF, 3.2 mM NEM (N-ethylmaleimide) [made fresh daily in DMSO], and 32 μM CPM [from a DMSO stock] in assay buffer of 50 mM HEPES, pH7.4, 150 mM NaCl, 1 mM CHAPS was added to 384 well Greiner 784076 (black) low-volume plates by BRAVO liquid handling station. Plates were centrifuged for 10 sec at 500 rpm. Plate was covered to protect from light and incubated for 2 min at room temperature. Reaction was quenched with 5 μL of 5% aqueous trifluoroacetic acid (TFA). Plates were covered to protect from light and incubated for 40 min at room temperature. Plates were read at ex: 380/em: 485 using-Envision microplate reader. PIC50 data, curve and QC analysis was conducted by using XLFit module in Excel.

In experiment [3] the target is T2, recombinant human Lp-PLA2 (Homo sapiens, UniProt Q13093).
T2 sequence (Q13093 22-441): T1 sequence (Q13093 22-441)
Kind of experiment: Recombinant human Lp-PLA2 assay (rhLp-PLA2, PED6 assay). The format is biochemical. The source says:
(1) Recombinant Human Lp-PLA2 Assay (rhLp-PLA2) (Also Referred to as “PED6” Assay)
N-((6-(2,4-dinitrophenyl)amino)-hexanoyl)-2-(4,4-difluoro-5,7-dimethyl-4-bora-3a,4a-diaza-s-indacene-3-pentanoyl)-1-hexadecanoyl-sn-glycero-3-phosphoethanolamine, triethylammonium salt (PED6) is a commercially available fluorescently-labelled phospholipid, which is commercially available from Molecular Probes. There is a quenching […] position and a Bodipy fluorescein (FL) group in the sn2 position.
The PED6 assay was run as an unquenched 10 μL assay. Compounds source plate was prepared by making 1:3 (by volume) serial dilution of the compounds into pure DMSO on 384-well microplate. […] 5 μL of recombinant human Lp-PLA2 enzyme (2 nM rhLp-PLA2 in assay buffer of 50 mM HEPES, pH7.4, 150 mM NaCl, 1 mM CHAPS) was added to each well of the plate with compounds. Plates were centrifuged for 10 sec at 500 rpm. […] Plates were centrifuged for 10 sec at 500 rpm. Plate was covered to protect from light and incubated for 20 min at room temperature. […] PIC50 data, curve and QC analysis was conducted by using XL fit module in Excel.

The mark [4] stands for this setting: text thresholds, upper limit for pIC50 in this assay is 9.3, read-out: pIC50 values in the PED6 assay (converted).
Setting [5] is: upper limit for pIC50 obtained in this PED6 assay is 9.3, read-out: rhLp-PLA2 (PED6 assay) (pIC50) (converted).

Each structure is given as a SMILES string. Where two headings read alike, the source gives them in different places.

For the molecule `COc1ccc2c(c1)CCn1c-2cc(Oc2ccc(Oc3cccc(C(F)(F)F)c3)c(C#N)c2)nc1=O`, in experiment [1], the “M1 markers (expression by realtime PCR)” value is on record as “decrease” and the “M2 markers (expression by realtime PCR)” value is reported as “increase”.

Regarding `O=c1ccc(Cc2c[nH]c(NCCc3ccc(Oc4ccc(Cl)c(C(F)(F)F)c4)cc3)nc2=O)c[nH]1` [E212, 2-{2-[4-(4-Chloro-3-trifluoromethyl-phenoxy)-phenyl]-ethylamino}-5-(6-oxo-1,6-dihydro-pyridin-3-ylmethyl)-1H-pyrimidin-4-one], the IC50 in experiment [2] was not above 100 nM; in experiment [3] (setting [4]), not above 10 nM; in experiment [3] (setting [5]), 6.31 nM.

Take `O=c1nc(NCCc2ccc(Oc3ccc(Cl)c(C(F)(F)F)c3)cc2)[nH]cc1Cc1ccnnc1` [E214, 2-{2-[4-(4-chloro-3-trifluoromethyl-phenoxy)-phenyl]ethylamino}-5-pyridazin-4-ylmethyl-1H-pyrimidin-4-one]: the IC50 in experiment [2] was not above 100 nM; in experiment [3] (setting [4]) it was not above 10 nM.

For `O=c1nc(NCCc2ccc(Oc3ccc(C(F)(F)F)cc3)cc2)[nH]cc1Cc1cncnc1` [E204], the IC50 in experiment [2] was not above 100 nM; in experiment [3] (setting [4]), not above 10 nM.

Turning to `Cn1cc(Cc2cncnc2)c(=O)nc1OCCc1ccc(Oc2ccc(Cl)c(C(F)(F)F)c2)c(F)c1` [E141, 2-{[2-(4-{[4-chloro-3-(trifluoromethyl)phenyl]oxy}-3-fluorophenyl)ethyl]oxy}-1-methyl-5-(5-pyrimidinylmethyl)-4(1H)-pyrimidinone], the values for the IC50 in experiment [2] and in experiment [3] (setting [4]) were not above 100 nM and not above 1 nM, respectively.

For the molecule `COc1ncc(Cc2c[nH]c(OCCc3ccc(Oc4ccc(C)c(Cl)c4)cc3)nc2=O)cn1` [E151, 2-[(2-{4-[(3-chloro-4-methylphenyl)oxy]phenyl}ethyl)oxy]-5-{[2-(methyloxy)-5-pyrimidinyl]methyl}-4(1H)-pyrimidinone], the results for the IC50 in experiment [2] and in experiment [3] (setting [4]) were not above 100 nM and not above 1 nM, respectively.

Take `Cn1cc(Cc2c[nH]c(OCCc3ccc(Oc4cc(Cl)cc(C(F)(F)F)c4)cc3)nc2=O)cn1` [E162, 2-{[2-(4-{[3-chloro-5-(trifluoromethyl)phenyl]oxy}phenyl)ethyl]oxy}-5-[(1-methyl-1H-pyrazol-4-yl)methyl]-4(1H)-pyrimidinone]: the IC50 in experiment [2] was not above 100 nM; in experiment [3] (setting [4]), not above 10 nM.

As for `COc1ncc(Cc2c[nH]c(NCCc3ccc(Oc4ccc(C(F)(F)F)cn4)c(C#N)c3)nc2=O)cn1` [E202, 5-{2-[5-(2-methoxy-pyrimidin-5-ylmethyl)-4-oxo-1,4-dihydro-pyrimidin-2-yl]-amino}-ethyl-2-(5-trifluoromethyl-pyridin-2-yloxy)benzonitrile], the IC50 was not above 100 nM in experiment [2], not above 10 nM in experiment [3] (setting [4]) and 7.94 nM in experiment [3] (setting [5]).

With `Cc1ccc(Cc2c[nH]c(NCCc3ccc(Oc4ccc(Cl)c(C(F)(F)F)c4)cc3)nc2=O)cn1` [E210, 2-{2-[4-(4-Chloro-3-trifluoromethyl-phenoxy)-phenyl]-ethylamino}-5-(6-methyl-pyridin-3-ylmethyl)-1H-pyrimidin-4-one], the values for the IC50 in experiment [2] and in experiment [3] (setting [4]) were not above 100 nM and not above 10 nM, respectively.

Consider `Cn1cc(Cc2cn(C)c(SCc3ccc(Oc4cc(Cl)ccn4)cc3)nc2=O)cn1` [E93, 2-[({4-[(4-chloro-2-pyridinyl)oxy]phenyl}methyl)thio]-1-methyl-5-[(1-methyl-1H-pyrazol-4-yl)methyl]-4(1H)-pyrimidinone], for which the IC50 in experiment [2] was not above 100 nM; in experiment [3] (setting [4]), not above 1 nM.

Turning to `N#Cc1cc(CSc2nc(=O)c(Cc3cncnc3)c[nH]2)ccc1Oc1ccc(F)c(C(F)(F)F)c1` [E87, 2-{[4-fluoro-3-(trifluoromethyl)phenyl]oxy}-5-({[4-oxo-5-(5-pyrimidinylmethyl)-1,4-dihydro-2-pyrimidinyl]thio}methyl)benzonitrile], the IC50 was not above 1000 nM in experiment [2] and not above 1 nM in experiment [3] (setting [4]).

In the case of `CN(CCc1ccc(Oc2ccc(Cl)c(C(F)(F)F)c2)cc1)c1nc(=O)c(Cc2cncnc2)cn1C` [E196, 2-({2-[4-(4-Chloro-3-trifluoromethyl-phenoxy)-phenyl]-ethyl}-methyl-amino)-1-methyl-5-pyrimidin-5-ylmethyl-1H-pyrimidin-4-one], the IC50 in experiment [2] is not above 1000 nM; in experiment [3] (setting [4]) it was not above 10 nM.

On to `COc1ncc(Cc2c[nH]c(OCCc3ccc(Oc4cnc(C(F)(F)F)nc4)cc3)nc2=O)cn1` [E143, 5-{[2-(methyloxy)-5-pyrimidinyl]methyl}-2-{[2-(4-{[2-(trifluoromethyl)-5-pyrimidinyl]oxy}phenyl)ethyl]oxy}-4(1H)-pyrimidinone], for which the IC50 was not above 1000 nM in experiment [2] and not above 10 nM in experiment [3] (setting [4]).

For `Cn1cc(Cc2cncnc2)c(=O)nc1SCc1ccc(Oc2cccc(C(F)(F)F)c2)c(C#N)c1` [E97, 5-({[1-methyl-4-oxo-5-(5-pyrimidinylmethyl)-1,4-dihydro-2-pyrimidinyl]thio}methyl)-2-{[3-(trifluoromethyl)phenyl]oxy}benzonitrile], the IC50 in experiment [2] is not above 100 nM; in experiment [3] (setting [4]) it was not above 1 nM.

For `Cc1ccc(Oc2ccc(CCOc3nc(=O)c(Cc4cncnc4)c[nH]3)cc2)cc1Cl` [E150, 2-[(2-{4-[(3-chloro-4-methylphenyl)oxy]phenyl}ethyl)oxy]-5-[pyrimidin-5-ylmethyl]-4(1H)-pyrimidinone], the IC50 in experiment [2] was not above 100 nM; in experiment [3] (setting [4]), not above 1 nM.

Source of the values: US8637536B2, “Pyrimidinone compounds for use in the treatment of diseases or conditions mediated by Lp-PLA2” (Glaxo Group Limited, priority 2010, dated 2014).
